Results on 2 compounds are retold here after patent US20100003217A1, “Compounds and Pharmaceutical Compositions for the Treatment of Viral Infections” (priority 2008, published 2010).

Where “and” joins values, the source holds several entries; their conditions need not be identical. Equal entries are not always repeated.

For data set [1], the system named is human primary hepatocytes. The experiment in a line: Metabolic disposition of [^14C]-Compound 1 and [^14C]-2′-C-methyl guanosine in human primary hepatocytes (incubation medium, cellular extracts, nucleotide levels). In kind it is in vitro ADME. Here is the method:
(§1) Primary hepatocytes: Freshly isolated cells from animal and human liver were obtained in suspension on ice. Cells were pelleted by centrifugation at 70-75×g (rat) or 95-90×g (monkey and human) and resuspended at 0.8 million cells per mL of platting medium (William's E supplemented with 5% FBS, 0.5% penicillin-streptomycin, 1% L-glutamine, 4 μg/mL insulin and 1 μM dexamethasone). Multi-well collagen I-coated plates (rat tail collagen type I; 12- or 6-well) were then seeded by addition of 1 mL (12-well; 0.8 million cells/well) or 2 mL (6-well; 1.6 million cells/well) of cell suspension. The plates were gently shaken to evenly distribute the cells and placed in an incubator at 37° C. for approximately 4 to 6 hours to allow cells to attach. Once cells were attached, the platting medium was removed and replaced with hepatocyte culture medium (William's E supplemented with penicillin-streptomycin, 1% L-glutamine, 1% insulin-transferrin-selenium and 0.1 μM dexamethasone). Cells were left overnight in an incubator at 37° C. to acclimatize to culture and the medium.
(§2) Hepatocyte incubations with radiolabeled Compound 1 and 2′-C-methyl guanosine, both labeled in the C-8 position of the guanine moiety, were conducted at a final volume of 2.0 mL hepatocyte culture medium/well ([…]). Culture medium from overnight incubation of cells was removed and replaced with fresh medium, pre-warmed to 37° C., containing 1 or 10 μM [^14C]-Compound 1 ([…]) or [^14C]-2′-C-methyl guanosine (127 DPM/μmol) from a stock solution in DMSO (final DMSO concentration was 0.1%) or 50% ethanol (final ethanol concentration was 0.2%). After 1, 4, 8 and 24 hours, 0.5-1.0 mL of incubation medium was removed and stored at −20° C. until analysis (described below). The remaining medium was discarded and cell monolayers were carefully washed two times with ice-cold PBS. Following the last wash, all PBS was carefully removed and 1.0 mL of extraction solution (ice-cold 70% methanol) added. Cells were scrapped off and suspended in the extraction solution, transferred to 2 mL polypropylene microfuge tubes and intracellular contents extracted overnight at −20° C.
(§3) Preliminary identification of putative metabolites was conducted by comparing the retention time of observed metabolites in incubation medium and cellular extracts with retention times obtained with chemically synthesized standards using the chromatography conditions described below. Further identification of 2′-C-methyl guanosine nucleotides (mono-, di- and triphosphate) was carried out by incubating cellular extract samples with alkaline phosphatase (10 units for 60 min at 37° C.) and comparing the HPLC retention times of the resulting nucleosides with that of authentic 2′-C-methyl guanosine.
(§4) Cellular extracts were prepared by centrifugation at 16,000 RCF using an Eppendorf microcentrifuge (Eppendorf, Model 5415D) for 10 min to remove cellular debris. An aliquot of 5-10 μL of the supernatant was added to 5 mL of EcoLite™ (MP, Irvine, Calif.) liquid scintillation cocktail and radioactivity measured by liquid scintillation counting (LSC) using a Beckman Coulter LS6500 multipurpose liquid scintillation counter (Beckman Instruments, Fullerton, Calif.). The remaining sample was then dried using a Labconco refrigerated centrivap concentrator (Labconco, Kansas City, Mo.). Dry extracts were reconstituted in 120 μL of HPLC-grade water and centrifuged at 16,000 RCF using an Eppendorf microcentrifuge for 10 min. Prior to HPLC analysis (described below), radioactivity of the concentrated extracts was measured by LSC using 5 μL aliquots. Extraction recovery was then determined by comparing total radioactivity in extracts before and after drying. The remaining extract was then analyzed by HPLC with online radioactivity detection using a Flow Scintillation Analyzer Radiomatic™ 515TR. Radioactivity in the separated components was quantified by integrating the peaks using Flo-One™ Software (Perkin Elmer Life Sciences). […]

The test system of data set [2] is monkey primary hepatocytes. The experiment in a line: Metabolic disposition of [^14C]-Compound 1 and [^14C]-2′-C-methyl guanosine in monkey primary hepatocytes (incubation medium, cellular extracts, nucleotide levels). The format is in vitro ADME, Cynomolgus monkey. Conditions: for decrease in Compound 1 medium levels: monkey hepatocytes; for decrease in Compound 1 medium levels / % Residual [^14C]-Compound 1 in incubation medium: 10 μM. The protocol: as §1, §2, §3, §4

As to `CC(C)(CO)C(=O)SCCOP(=O)(NCc1ccccc1)OC[C@H]1O[C@@H](n2cnc3c(=O)[nH]c(N)nc32)[C@](C)(O)[C@@H]1O` (mixture of isomers) [Compound 1, 3-hydroxy-2,2-dimethyl-thiopropionic acid S-(2-{[(2R,3R,4R,5R)-5-(2-amino-6-oxo-1,6-dihydro-purin-9-yl)-3,4-dihydroxy-4-methyl-tetrahydro-furan-2-ylmethoxy]-benzylamino-phosphoryloxy}-ethyl) ester], the “metabolites observed in cellular extracts (% of total radioactivity)” value in data set [1] (human hepatocytes (Hu759, Hu775), 10 μM [^14C]-Compound 1, 1 h) was 31.1% and 23.9%; in data set [1] (human hepatocytes (Hu759, Hu775), 10 μM [^14C]-Compound 1, 4 h) it was 8.48% and 6.96%; in data set [1] (human hepatocytes (Hu759, Hu775), 10 μM [^14C]-Compound 1, 24 h) it was 1.38% and 1.59%; in data set [1] (human hepatocytes (Hu775), 1 μM [^14C]-Compound 1, 1 h), 19.9%; in data set [1] (human hepatocytes (Hu775), 1 μM [^14C]-Compound 1, 8 h) it was 4.07%; in data set [1] (human hepatocytes (Hu775), 1 μM [^14C]-Compound 1, 24 h), 2.78%. The “metabolites observed in cellular extracts (% of total radioactivity)” value in data set [2] (monkey hepatocytes (Cy230, Cy234), 10 μM [^14C]-Compound 1, 8 h) is “BLD”; in data set [2] (monkey hepatocytes (Cy230, Cy234), 10 μM [^14C]-Compound 1, 24 h) it was “undetected and BLD”; in data set [2] (monkey hepatocytes (Cy234), 10 μM [^14C]-Compound 1, 4 h) it was 3.03%. Moreover, the “decrease in Compound 1 medium levels” value is given as 38% in data set [1] (human hepatocytes, 10 μM, 24 hours); “about 40%” in data set [2] (8 hours); 77% in data set [2] (24 hours). Moreover, the “% Residual [^14C]-Compound 1 in incubation medium” value (“% Residual” below) in data set [1] (human primary hepatocytes (n=1), 1 μM, 0 h) is 97%; in data set [1] (human primary hepatocytes (n=1), 1 μM, 1 h) it was 100%; in data set [1] (human primary hepatocytes (n=1), 1 μM, 8 h) it was 78%; in data set [1] (human primary hepatocytes (n=1), 1 μM, 24 h), 51%; in data set [1] (human primary hepatocytes (n=2), 10 μM, 0 h) it was 97% and 98%; in data set [1] (human primary hepatocytes (n=2), 10 μM, 1 h) it was 94% and 97%. The “% Residual” value in data set [1] (human primary hepatocytes (n=2), 10 μM, 4 h) is 91%; in data set [1] (human primary hepatocytes (n=2), 10 μM, 8 h), 84% and 79%; in data set [1] (human primary hepatocytes (n=2), 10 μM, 24 h), 63% and 60%; in data set [2] (monkey primary hepatocytes (n=2), 0 h) it was 97% and 91%; in data set [2] (monkey primary hepatocytes (n=2), 1 h) it was 95% and 67%; in data set [2] (monkey primary hepatocytes (n=2), 8 h), 63% and 61%. Also, the “% Residual” value in data set [2] (monkey primary hepatocytes (n=2), 24 h) was 16% and 31%; in data set [2] (monkey primary hepatocytes, 4 h), 66%.

As to `CC(C)(CO)C(=O)SCCOP(N)(=O)OC[C@H]1O[C@@H](n2cnc3c(=O)[nH]c(N)nc32)[C@](C)(O)[C@@H]1O` (mixture of isomers) [Compound 3, {9-[(2R)2-C-methyl-β-D-ribo-furanosyl]-guanin}-5′-yl-O-(hydroxy-tert-butyl-S-acyl-2-thioethyl) phosphoramidate], the “metabolites observed in medium (% of total radioactivity)” value in data set [2] (monkey hepatocytes (lot Cy234), 10 μM [^14C]-Compound 1, 4 h) is “BLD”; in data set [2] (monkey hepatocytes (lots Cy230, Cy234), 10 μM [^14C]-Compound 1, 0 h), “BLD”; in data set [2] (monkey hepatocytes (lots Cy230, Cy234), 10 μM [^14C]-Compound 1, 1 h), “BLD”; in data set [2] (monkey hepatocytes (lots Cy230, Cy234), 10 μM [^14C]-Compound 1, 24 h), 3.1% and 0.9%.
